Laboratory results from article PMC10947113, “A Bivalent Activatable Fluorescent Probe for Screening and Intravital Imaging of Chemotherapy‐Induced Cancer Cell Death” (Angewandte Chemie (Weinheim an Der Bergstrasse, Germany), 2021).
Like-named read-outs stand apart in the source and are kept apart here.

B1: Annexin V‐AF647: a 36 kDa protein marker of PtdSer in the presence of Ca2+ ions (protein, UniProt P08758 2-320, looked up)
Annexin A5: AQVLRGTVTDFPGFDERADAETLRKAMKGLGTDEESILTLLTSRSNAQRQEISAAFKTLFGRDLLDDLKSELTGKFEKLIVALMKPSRLYDAYELKHALKGAGTNEKVLTEIIASRTPEELRAIKQVYEEEYGSSLEDDVVGDTSGYYQRMLVVLLQANRDPDAGIDEAQVEQDAQALFQAGELKWGTDEEKFITIFGTRSVSHLRKVFDKYMTISGFQIEETIDRETSGNLEQLLLAVVKSIRSIPAYLAETLYYAMKGAGTDDHTLIRVMVSRSEIDLFNIRKEFRKNFATSLYSMIKGDTSGDYKKALLLLCGEDD
modifications: Alexa Fluor 647 label
notes: a 36 kDa protein marker of PtdSer in the presence of Ca2+ ions

Key:
8 cancer cell lines = experiment: Classification of drugs by Apotracker Red (apoptosis) and CellTrace Violet (proliferation) staining; assay type: cell-based; details: for effect on cell proliferation (CellTrace Violet): Figure S8
Experimental: (§1) To corroborate the versatility of Apotracker Red, we built a screening platform including a total of 8 cancer cell lines of variable origin and pathogenesis: breast (MCF7, MDA‐MB231 and MMTV‐PyMT (mouse mammary tumour virus‐polyoma middle tumour‐antigen)[23]), lung (A549), prostate (PC3 and LnCap), blood cells (Jurkat) and colon (HT29). All cell lines were cultured under standard conditions and seeded with the fluorescent proliferation marker CellTrace^TM Violet (CV) in 96‐well plates (10–20×10^3 cells/well) for high‐throughput flow cytometry. After drug treatment (i.e., drug addition plus 24 h incubation), Apotracker Red was incubated for 10 min and fluorescence readings were directly acquired without any additional processing steps (Figure 3 a). […] Using this platform, we tested a collection of FDA‐approved drugs in all cancer cell lines and compared their ability to induce apoptosis using Apotracker Red as the reporter. Specifically, we included DNA alkylation agents (e.g., cyclophosphamide, cisplatin, 5‐fluorouracil, gemcitabine, temozolomide), proteasomal and mitotic inhibitors (e.g., bortezomib, docetaxel, paclitaxel) and antagonists of specific proteins (e.g., dexamethasone, tamoxifen; Figure 3 b).
(§2) First, all drugs were tested in the 8 different cell lines to determine the percentages of Apotracker Red‐stained apoptotic cells compared to no treatment (Figure 3 c; Figure S8). […] All 5 drugs were tested at multiple concentrations (from 1 to 100 μM) and with incubation times up to 48 h to examine whether drugs could block cell proliferation at late stages (Figures S9–S13).
Figure S8. Heatmap of relative inhibition of cell proliferation (as indicated by staining of CellTraceTM Violet) after treatment of cancer cell lines with different drugs. Data presented as an average of 3 independent experiments. Cells were stained on day 0 with CellTraceTM Violet (1 µM) and mean fluorescence intensities were determined on the 5L LSR after 24 h of treatment with the different drugs. […]
Cell culture. MCF-7, A549, LnCap, MDA-MB-231, Jurkat T cells and PC3 cells were obtained from American Type Culture Collection (ATCC). HT29 cells were purchased from Merck (S i g m a Aldrich, UK). Mouse Mammary Tumour Virus –Polyoma Middle T antigen (MMTV -PyMT) cells were provided by the lab of Mikala Egeblad (CSHL, US). MMTV-PyMT, MCF-7, LnCap, MDA-MB-231 and Jurkat T cells were cultured in Roswell Park Memorial Institute (RPMI) 1640 Medium supplemented with 10% fetal bovine serum (FBS) , 100 U mL-1 penicillin and 0.1 mg mL-1 streptomycin. A549 and PC3 cells were cultured in Dublecco’s modified Eagle’s medium (DMEM) supplemented with 10% fetal bovine serum (FBS), 100 U mL-1 penicillin and 0.1 mg […]
Flow cytometry drug screen.

MDA-MB231 cells = experiment: Apotracker Red flow cytometry drug screen, MDA-MB231; assay type: cell-based, human; details: 1 to 100 μM, 48 h, Apotracker Red 150 nM, 3 independent experiments
Experimental: as §1, with “cytometry.” for “cytometry. After drug treatment (i.e., drug addition plus 24 h incubation), Apotracker Red was incubated for 10 min and fluorescence readings were directly acquired without any additional processing steps (Figure 3 a).”
Edinburgh. Human peripheral blood neutrophils were isolated as previously described.[3] Briefly, whole blood was drawn into tubes containing anti -coagulant 3.6% sodium citrate (final concentration: 0.4% (w/v)) and centrifuged at 350 g for 20 min at r.t. with lowest acceleration and no brake. Platelet-rich plasma was rem oved, and leukocytes separated from erythrocytes by 0.6% dextran sedimentation in saline for 30 min at r.t. The upper layer was further fractionated using an isotonic discontinuous Percoll density gradient. Neutrophils were harvested from the 63% and 72.9% interface and cultured in Iscove’s Modified Dulbecco’s Medium (IMDM, Gibco) in 5% h um an A B se rum fo r 1 8 h at 37°C, 5% CO2 to in du ce spontaneous […]
Cell culture. MCF-7, A549, LnCap, MDA-MB-231, Jurkat T cells and PC3 cells were obtained from American Type Culture Collection (ATCC). HT29 cells were purchased from Merck (S i g m a Aldrich, UK). Mouse Mammary Tumour Virus –Polyoma Middle T antigen (MMTV -PyMT) cells were provided by the lab of Mikala Egeblad (CSHL, US). […]

[1] = system: breast cancer cells (MMTV-PyMT, MDA-MB231, MCF7); experiment: Dose-dependency study in breast cancer cell lines; assay type: cell-based, mouse and human; details: 1 to 100 μM, 48 h, Apotracker Red 150 nM, 3 independent experiments
Experimental: as §2, with “S8). […] From this screen, we decided to select 5 drugs with potent pro‐apoptotic response in breast cancer, the most diagnosed cancer worldwide.[25] […] From group 2, we selected cyclophosphamide, tamoxifen, and 5‐fluorouracil as pro‐apoptotic molecules.” for “S8).”
Figure 4 Apotracker Red detects dose‐dependent chemotherapeutic‐induced apoptosis in mouse and human breast cancer cell lines. Cells were plated with 1 μM CV, treated with increasing concentrations (0, 1, 3, 10, 30 and 100 μM) of selected drugs for 48 h, and stained with Apotracker Red (150 nM) before data acquisition. Drugs: tamoxifen (beige), cisplatin (black), 5‐fluorouracil (green), gemcitabine (pink) and cyclophosphamide (red). Data presented as mean±SEM of 3 independent experiments.
Edinburgh. Human peripheral blood neutrophils were isolated as previously described.[3] Briefly, whole blood was drawn into tubes containing anti -coagulant 3.6% sodium citrate (final concentration: 0.4% (w/v)) and centrifuged at 350 g for 20 min at r.t. with lowest acceleration and no brake. Platelet-rich plasma was rem oved, and leukocytes separated from erythrocytes by 0.6% dextran sedimentation in saline for 30 min at r.t. […]
were centrifuged (300 g, 5 min, r.t.), washed once with PBS before addition of 0.05% Trypsin, 0.02% ethylenediaminetetraacetic acid (EDTA) in Hank’s balanced salt solution (HBSS) and incubation at 37°C for 5 min. […] Histograms and mean fluorescence intensities of apoptotic cells were measured on a 5L LSR flow cytometer under the following excitation/emission filters: Apotracker Red (561/610 nm), Annexin V-AF647 (647 /670 nm).
Data were acquired using the FACS Diva software and analysed using the FlowJo X software. […]

[2] = system: apoptotic cells (primary human neutrophils, Jurkat T cells); experiment: Divalent cation-independent staining, flow cytometry with EDTA; assay type: cell-based; details: 2.5 mM EDTA, Apotracker Red 150 nM, Annexin V-AF647 25 nM
[3] = 8 cancer cell lines, 24 h treatment, flow cytometry

Molecule	drug group by Apotracker Red (apoptosis) and CV (proliferation) staining (8 cancer cell lines; [3])	Apotracker Red staining in MDA-MB-231 cells, dose-dependency study (MDA-MB231 cells)	other results
CC(C)C[C@H](NC(=O)[C@H](Cc1ccccc1)NC(=O)c1cnccn1)B(O)O [bortezomib]	induced apoptosis with little reduction of cell proliferation	–	effect on cell proliferation (CellTrace Violet) (8 cancer cell lines; 24 h treatment): very minor effects on cell proliferation
Nc1ccn([C@@H]2O[C@H](CO)[C@@H](O)C2(F)F)c(=O)n1 [gemcitabine]	induced apoptosis and decreased cell proliferation	weaker Apotracker Red‐staining	–
O=P1(N(CCCl)CCCl)NCCCO1 (stereo not shown) [cyclophosphamide]	–	weaker Apotracker Red‐staining	drug group by Apotracker Red (apoptosis) and CV (proliferation) staining (8 cancer cell lines): induced apoptosis with little reduction of cell proliferation
C[C@@H]1C[C@H]2[C@@H]3CCC4=CC(=O)C=C[C@]4(C)[C@@]3(F)[C@@H](O)C[C@]2(C)[C@@]1(O)C(=O)CO [dexamethasone]	had no impact on proliferation or apoptosis	–	–
O=c1[nH]cc(F)c(=O)[nH]1 [5-fluorouracil]	induced apoptosis with little reduction of cell proliferation	weaker Apotracker Red‐staining	–
CC/C(=C(\c1ccccc1)c1ccc(OCCN(C)C)cc1)c1ccccc1 [tamoxifen]	induced apoptosis with little reduction of cell proliferation	–	percentages of Apotracker Red staining across all breast cancer cells, dose-dependency study [1]: highest percentages of Apotracker Red staining
Cn1nnc2c(C(N)=O)ncn2c1=O [temozolomide]	inhibited cell proliferation but showed little or no induction of apoptosis	–	–
CC(=O)O[C@H]1C(=O)[C@@]2(C)[C@H]([C@H](OC(=O)c3ccccc3)[C@]3(O)C[C@H](OC(=O)[C@H](O)[C@@H](NC(=O)c4ccccc4)c4ccccc4)C(C)=C1C3(C)C)[C@]1(OC(C)=O)CO[C@@H]1C[C@@H]2O [paclitaxel]	induced apoptosis with little reduction of cell proliferation	–	effect on cell proliferation (CellTrace Violet) (8 cancer cell lines; 24 h treatment): very minor effects on cell proliferation
CC(=O)O[C@@]12CO[C@@H]1C[C@H](O)[C@@]1(C)C(=O)[C@H](O)C3=C(C)[C@@H](OC(=O)[C@H](O)[C@@H](NC(=O)OC(C)(C)C)c4ccccc4)C[C@@](O)([C@@H](OC(=O)c4ccccc4)[C@H]21)C3(C)C [docetaxel]	inhibited cell proliferation but showed little or no induction of apoptosis	–	–
B1	–	–	staining of apoptotic cells after chelation of divalent cations [2]: failed to bind
